Drawing on PubChem BioAssay AID328 (DTP/NCI, 2004), this text covers T/C for 8 compounds.

Where “and” joins values, the source holds several entries; their conditions need not be identical. Identical values can stand only once. Inconclusive results and toxic doses are left out.

The subject of this assay is BDF1 mice, P388 leukemia ip, median survival T/C. Briefly: NCI In Vivo Anticancer Drug Screen. Data for tumor model P388 Leukemia (intraperitoneal) in B6D2F1 (BDF1) mice. The settings on record: endpoint: median survival time, higher = longer survival. In short, it runs like this: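 Compound-treated tumour-bearing mice were compared with vehicle-treated controls. Survival was recorded, and the value is the treated-group measurement divided by the control-group measurement (T/C).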

Setting [1] is: dose: 100.0 mg/kg/injection, schedule: Q04DX003 (ip), vehicle: saline with Tween-80.
Setting [2] is: dose: 200.0 mg/kg/injection, schedule: Q04DX003 (ip), vehicle: saline with Tween-80.
Where [3] appears, read: dose: 400.0 mg/kg/injection, schedule: Q04DX003 (ip), vehicle: saline with Tween-80.

Regarding `Cn1cnc([N+](=O)[O-])c1[Se]c1ncnc2c1ncn2C1OC(CO)C(O)C1O` (stereo not given), the T/C runs as follows: (dose: 6.25 mg/kg/injection, schedule: Q01DX009 (ip), vehicle: saline) 105 % of control; (dose: 12.5 mg/kg/injection, schedule: Q01DX009 (ip), vehicle: saline) 113 % of control; (dose: 12.5 mg/kg/injection, schedule: Q04DX003 (ip), vehicle: saline) 113 % of control; (dose: 25.0 mg/kg/injection, schedule: Q01DX009 (ip), vehicle: saline) 102 % of control; (dose: 25.0 mg/kg/injection, schedule: Q04DX003 (ip), vehicle: saline) 100 % of control and 104 % of control; (dose: 50.0 mg/kg/injection, schedule: Q04DX003 (ip), vehicle: saline) 100 % of control and 113 % of control. Also, the T/C (dose: 100.0 mg/kg/injection, schedule: Q04DX003 (ip), vehicle: saline) was 100 % of control and the T/C (dose: 200.0 mg/kg/injection, schedule: Q04DX003 (ip), vehicle: saline) was 100 % of control.

Consider `CC(=O)Nc1cc(N(CCOS(C)(=O)=O)CCOS(C)(=O)=O)ccc1N=O`, for which the T/C reads like this: (dose: 0.7 mg/kg/injection, schedule: Q04DX003 (ip), vehicle: saline with Tween-80) 179 % of control; (dose: 1.1 mg/kg/injection, schedule: Q04DX003 (ip), vehicle: saline with Tween-80) 212 % of control; (dose: 1.6 mg/kg/injection, schedule: Q04DX003 (ip), vehicle: saline with Tween-80) 208 % of control; (dose: 1.65 mg/kg/injection, schedule: Q04DX003 (ip), vehicle: saline with Tween-80) 150 % of control and 191 % of control; (dose: 2.5 mg/kg/injection, schedule: Q04DX003 (ip), vehicle: saline with Tween-80) 175 % of control; (dose: 3.75 mg/kg/injection, schedule: Q04DX003 (ip), vehicle: saline with Tween-80) 104 % of control.

Turning to `COc1cccc(CCC(=O)O)c1OC`, the T/C is, setting by setting: (dose: 25.0 mg/kg/injection, schedule: Q04DX003 (ip), vehicle: water) 109 % of control; (dose: 50.0 mg/kg/injection, schedule: Q04DX003 (ip), vehicle: water) 101 % of control; (dose: 100.0 mg/kg/injection, schedule: Q04DX003 (ip), vehicle: water) 111 % of control; (dose: 200.0 mg/kg/injection, schedule: Q04DX003 (ip), vehicle: water) 103 % of control; (dose: 400.0 mg/kg/injection, schedule: Q04DX003 (ip), vehicle: water) 94 % of control.

Consider `COc1ccc(C2=C(c3ccccc3)C(c3ccccc3)=C(c3ccc(OC)cc3)C2=O)cc1`, for which the T/C reads like this: (dose: 50.0 mg/kg/injection, schedule: Q01DX009 (ip), vehicle: saline with Tween-80) 103 % of control; (dose: 100.0 mg/kg/injection, schedule: Q01DX009 (ip), vehicle: saline with Tween-80) 89 % of control; (dose: 200.0 mg/kg/injection, schedule: Q01DX009 (ip), vehicle: saline with Tween-80) 99 % of control; (dose: 400.0 mg/kg/injection, schedule: Q01DX009 (ip), vehicle: saline with Tween-80) 94 % of control.

In the case of `Cc1ccc(C(=O)CCCCl)c(C)c1`, the T/C was 109 % of control under setting [1], 109 % of control under setting [2] and 118 % of control under setting [3].

As for `C=C(C)C1CC=C(/C=N/O)CC1` (stereo not given), the T/C under setting [1] is 100 % of control, the T/C under setting [2] was 100 % of control and the T/C under setting [3] is 95 % of control.

In the case of `COc1cc2cc(c1Cl)N(C)C(=O)C[C@H](OC(=O)[C@H](C)N(C)C(C)=O)[C@]1(C)O[C@H]1[C@H](C)[C@@H]1C[C@@](O)(NC(=O)O1)[C@H](OC)C=C/C=C(\C)C2`, the T/C runs as follows: (dose: 1.6 micrograms/kg/injection, schedule: Q01DX009 (ip), vehicle: saline) 155 % of control; (dose: 2.0 micrograms/kg/injection, schedule: Q08DX002 (ip), vehicle: saline) 104 % of control; (dose: 3.1 micrograms/kg/injection, schedule: Q01DX009 (ip), vehicle: saline) 165 % of control; (dose: 4.0 micrograms/kg/injection, schedule: Q08DX002 (ip), vehicle: saline) 111 % of control and 117 % of control; (dose: 6.2 micrograms/kg/injection, schedule: Q01DX009 (ip), vehicle: saline) 195 % of control; (dose: 8.0 micrograms/kg/injection, schedule: Q08DX002 (ip), vehicle: saline) 122 % of control and 123 % of control. Besides, the T/C runs as follows: (dose: 10.0 micrograms/kg/injection, schedule: Q03HX024 (ip), vehicle: saline) 194 % of control; (dose: 12.5 micrograms/kg/injection, schedule: Q01DX009 (ip), vehicle: saline) 190 % of control; (dose: 15.0 micrograms/kg/injection, schedule: Q03HX024 (ip), vehicle: saline) 238 % of control; (dose: 20.0 micrograms/kg/injection, schedule: Q03HX024 (ip), vehicle: saline) 176 % of control; (dose: 25.0 micrograms/kg/injection, schedule: Q01DX009 (ip), vehicle: saline) 220 % of control; (dose: 25.0 micrograms/kg/injection, schedule: Q03HX024 (ip), vehicle: saline) 188 % of control. For the same compound, the T/C runs as follows: (dose: 30.0 micrograms/kg/injection, schedule: Q03HX024 (ip), vehicle: saline) 527 % of control; (dose: 32.0 micrograms/kg/injection, schedule: Q08DX002 (ip), vehicle: clinical formulation) 191 % of control; (dose: 35.0 micrograms/kg/injection, schedule: Q03HX024 (ip), vehicle: saline) 194 % of control; (dose: 40.0 micrograms/kg/injection, schedule: Q03HX024 (ip), vehicle: saline) 188 % of control; (dose: 50.0 micrograms/kg/injection, schedule: Q04DX003 (ip), vehicle: clinical formulation) 203 % of control; (dose: 54.0 micrograms/kg/injection, schedule: Q04DX003 (ip), vehicle: clinical formulation) 192 % of control. The T/C runs as follows: (dose: 64.0 micrograms/kg/injection, schedule: Q08DX002 (ip), vehicle: clinical formulation) 155 % of control and 169 % of control; (dose: 64.0 micrograms/kg/injection, schedule: Q08DX002 (ip), vehicle: saline) 163 % of control; (dose: 90.0 micrograms/kg/injection, schedule: Q04DX003 (ip), vehicle: clinical formulation) 200 % of control; (dose: 100.0 micrograms/kg/injection, schedule: Q04DX003 (ip), vehicle: clinical formulation) 183 % of control; (dose: 108.0 micrograms/kg/injection, schedule: Q04DX003 (ip), vehicle: saline) 172 % of control; (dose: 128.0 micrograms/kg/injection, schedule: Q08DX002 (ip), vehicle: clinical formulation) 167 % of control and 182 % of control. Also, the T/C was 183 % of control and 193 % of control (dose: 128.0 micrograms/kg/injection, schedule: Q08DX002 (ip), vehicle: saline); 224 % of control (dose: 150.0 micrograms/kg/injection, schedule: Q04DX003 (ip), vehicle: clinical formulation); 159 % of control (dose: 180.0 micrograms/kg/injection, schedule: Q04DX003 (ip), vehicle: saline); 194 % of control (dose: 200.0 micrograms/kg/injection, schedule: Q04DX003 (ip), vehicle: clinical formulation); 224 % of control (dose: 250.0 micrograms/kg/injection, schedule: Q04DX003 (ip), vehicle: clinical formulation); 197 % of control and 204 % of control (dose: 256.0 micrograms/kg/injection, schedule: Q08DX002 (ip), vehicle: clinical formulation). Further, the T/C is, setting by setting: (dose: 256.0 micrograms/kg/injection, schedule: Q08DX002 (ip), vehicle: saline) 203 % of control and 219 % of control; (dose: 300.0 micrograms/kg/injection, schedule: Q04DX003 (ip), vehicle: saline) 180 % of control; (dose: 512.0 micrograms/kg/injection, schedule: Q08DX002 (ip), vehicle: clinical formulation) 227 % of control; (dose: 512.0 micrograms/kg/injection, schedule: Q08DX002 (ip), vehicle: saline) 272 % of control and 219 % of control; (dose: 1024.0 micrograms/kg/injection, schedule: Q08DX002 (ip), vehicle: clinical formulation) 242 % of control; (dose: 1024.0 micrograms/kg/injection, schedule: Q08DX002 (ip), vehicle: saline) 88 % of control and 117 % of control.

`CP(C)c1ccccc1`: the T/C (dose: 25.0 mg/kg/injection, schedule: Q01DX009 (ip), vehicle: Klucel (hydroxypropylcellulose) (HPC)) is 92 % of control; the T/C (dose: 50.0 mg/kg/injection, schedule: Q01DX009 (ip), vehicle: Klucel (hydroxypropylcellulose) (HPC)) is 96 % of control; the T/C (dose: 50.0 mg/kg/injection, schedule: Q04DX003 (ip), vehicle: Klucel (hydroxypropylcellulose) (HPC)) was 100 % of control; the T/C (dose: 100.0 mg/kg/injection, schedule: Q01DX009 (ip), vehicle: Klucel (hydroxypropylcellulose) (HPC)) was 103 % of control; the T/C (dose: 100.0 mg/kg/injection, schedule: Q04DX003 (ip), vehicle: Klucel (hydroxypropylcellulose) (HPC)) is 123 % of control.
